# In PubChem BioAssay AID1259408 (Genetic Toxicology Data Bank (GENE-TOX), 2018):
# The source made the active and inactive calls. How the calls were made is not given here.
# Tested on: GENE-TOX genotoxicity assays, various organisms and cells
# Experiment: GENE-TOX mutagenicity studies
# Conditions: for call: Assay Type: In vivo carcinogenicity studies
# [1] = Species/Cell Type: Mouse (C3H/10T1/2) cells, Assay Type: Cell transformation, Assay Code: CTH+D, Dose Response: With dose response, Evaluation Type: Evaluation A (Pre-1980)
# [2] = Species/Cell Type: Salmonella typhimurium (one or more of the five standard strains: TA98, TA100, TA1535, TA1537, and TA1538), Assay Type: Histidine reverse gene mutation, Ames assay, Assay Code: SAL+, Evaluation Type: Evaluation A (Pre-1980)
# [3] = Species/Cell Type: Salmonella typhimurium (one or more of the five standard strains: TA98, TA100, TA1535, TA1537, and TA1538), Assay Type: Histidine reverse gene mutation, Ames assay, Assay Code: SAL+*, Activation: With metabolic activation, Evaluation Type: Evaluation A (Pre-1980)
# [4] = Species/Cell Type: Mouse embryo (AKR/ME) cells, Assay Type: Cell transformation, Assay Code: CTK+, Evaluation Type: Evaluation A (Pre-1980)
# [5] = Species/Cell Type: Nonhuman, Assay Code: CCG+, Evaluation Type: Evaluation A (Pre-1980)
# [6] = Species/Cell Type: Nonhuman, Assay Type: Sister-chromatid exchange (SCE) in vivo, Assay Code: SC3+D, Dose Response: With dose response, Evaluation Type: Evaluation B (Post-1980)
# [7] = Species/Cell Type: Saccharomyces cerevisiae, Assay Type: Mitotic recombination or gene conversion, Assay Code: YEH-, Evaluation Type: Evaluation A (Pre-1980)
# [8] = Species/Cell Type: Salmonella typhimurium, Assay Type: Forward and reverse gene mutation, host-mediated assay, Assay Code: HMA+, Evaluation Type: Evaluation A (Pre-1980)
# [9] = Species/Cell Type: Syrian hamster embryo (SHE) cells, Assay Type: Cell transformation, clonal assay, Assay Code: CTC+, Evaluation Type: Evaluation A (Pre-1980)
compound,measurement,setting,value
COCC(O)Cn1ccnc1[N+](=O)[O-] (stereo unspecified),mutagenic call,"Species/Cell Type: Escherichia coli WP2 UVRA, Assay Type: Tryptophan reverse gene mutation, Assay Code: WPU+D, Dose Response: With dose response, Evaluation Type: Evaluation A (Pre-1980)",active; positive
same,mutagenic call,[1],active; positive
same,mutagenic call,"Species/Cell Type: Nonhuman, Assay Type: Sister-chromatid exchange (SCE) in vitro, Assay Code: SC2+D, Dose Response: With dose response, Evaluation Type: Evaluation B (Post-1980)",active; positive
same,mutagenic call,"Species/Cell Type: Nonhuman, Assay Type: Sister-chromatid exchange (SCE) in vivo, Assay Code: SC3T, Evaluation Type: Evaluation B (Post-1980)",no conclusion
same,mutagenic call,[2],active; positive
CC1=CCc2c1cc(C)c1c2ccc2ccccc21,mutagenic call,[3],active; positive
Cn1ccc(CO)c1CO,mutagenic call,"Species/Cell Type: Human lymphocytes, Assay Type: Sister-chromatid exchange (SCE) in vitro, Assay Code: SCL+D, Dose Response: With dose response, Evaluation Type: Evaluation B (Post-1980)",active; positive
[Cl][Rh]([Cl])[Cl],mutagenic call,"Species/Cell Type: Bacillus subtilis (H17 vs M45), Assay Type: Rec-assay, spot test, DNA effects (bacterial DNA repair), Assay Code: REW+, Evaluation Type: Evaluation A (Pre-1980)",active; positive
COc1cc2ccc(=O)oc2cc1O,mutagenic call,"Species/Cell Type: Allium cepa, Assay Type: Chromosome aberrations, Assay Code: ALC+D, Dose Response: With dose response, Evaluation Type: Evaluation A (Pre-1980)",active; positive
CCN(CC)Cc1cc(Br)ccc1OCC(=O)N/N=C/c1ccccc1O,mutagenic call,"Species/Cell Type: Saccharomyces cerevisiae, Assay Type: Reverse gene mutation, Assay Code: YERT, Evaluation Type: Evaluation A (Pre-1980)",no conclusion
Nc1ccc2cc3ccccc3cc2c1,mutagenic call,"Species/Cell Type: Escherichia coli polA (W3110 vs P3478), Assay Type: Rec-assay, DNA effects (bacterial DNA repair), Assay Code: RE2+, Evaluation Type: Evaluation A (Pre-1980)",active; positive
same,mutagenic call,"Species/Cell Type: Escherichia coli polA (W3119 vs P3478), Assay Type: Rec-assay, DNA effects (bacterial DNA repair), Assay Code: RE1T, Evaluation Type: Evaluation A (Pre-1980)",no conclusion
same,mutagenic call,"Species/Cell Type: Mouse (BALB/c-3T3) cells, Assay Type: Cell transformation, Assay Code: CTB-, Evaluation Type: Evaluation A (Pre-1980)",inactive; negative
same,mutagenic call,[4],active; positive
same,call,[5],active; positive
same,mutagenic call,"Species/Cell Type: Nonhuman, Assay Type: Sister-chromatid exchange (SCE) in vitro, Assay Code: SC2+, Evaluation Type: Evaluation B (Post-1980)",active; positive
same,mutagenic call,[6],active; positive
same,mutagenic call,[7],inactive; negative
same,mutagenic call,[3],active; positive
same,mutagenic call,[8],active; positive
same,mutagenic call,[9],active; positive
O=S(=O)(O)c1cc(-n2nc3ccc4ccccc4c3n2)ccc1/C=C/c1ccccc1,mutagenic call,"Species/Cell Type: Rodents, Sex: Male, Assay Type: Dominant lethal test, Assay Code: DLT-, Evaluation Type: Evaluation A (Pre-1980)",inactive; negative
same,mutagenic call,"Species/Cell Type: Saccharomyces cerevisiae, Assay Type: Mitotic recombination or gene conversion, Assay Code: YECT, Evaluation Type: Evaluation A (Pre-1980)",no conclusion
same,mutagenic call,"Species/Cell Type: Salmonella typhimurium (one or more of the five standard strains: TA98, TA100, TA1535, TA1537, and TA1538), Assay Type: Histidine reverse gene mutation, Ames assay, Assay Code: SALT, Evaluation Type: Evaluation A (Pre-1980)",no conclusion
CC(=O)O/C=C/Cc1ccc2c(c1)OCO2,mutagenic call,"Species/Cell Type: Human diploid fibroblasts, Assay Type: Unscheduled DNA synthesis (UDS) in vitro, DNA effects, Assay Code: UDH+, Evaluation Type: Evaluation A (Pre-1980)",active; positive
COc1ccc2c(ccc3c4c(ccc32)C(C)=CC4)c1,mutagenic call,[3],active; positive
NC(=O)C(=Cc1ccc([N+](=O)[O-])o1)c1ccccc1,mutagenic call,[2],active; positive
Cc1cnc2ccccc2c1,mutagenic call,[3],active; positive
O[C@@H]([C@H](O)[C@H](O)CBr)[C@H](O)CBr,mutagenic call,[6],active; positive
C#C[C@]1(O)CC[C@H]2[C@@H]3CCc4cc(OC)ccc4[C@H]3CC[C@@]21C,call,[5],active; positive
CC(=O)ON(C(C)=O)c1ccc2c(c1)Cc1ccccc1-2,mutagenic call,"Species/Cell Type: Chinese hamster lung (V79) cells, Assay Type: Forward gene mutation at the HPRT or ouabain locus, Assay Code: V79+, Evaluation Type: Evaluation A (Pre-1980)",active; positive
same,mutagenic call,"Species/Cell Type: Drosophila melanogaster, Assay Type: Sex-linked recessive lethal gene mutation, Assay Code: SRL+, Evaluation Type: Evaluation A (Pre-1980)",active; positive
same,mutagenic call,"Species/Cell Type: Escherichia coli polA (W3119 vs P3478), Assay Type: Rec-assay, DNA effects (bacterial DNA repair), Assay Code: RE1+, Evaluation Type: Evaluation A (Pre-1980)",active; positive
same,mutagenic call,"Species/Cell Type: Fischer rat embryo (RLV/1706) cells, Assay Type: Cell transformation, viral enhanced, Assay Code: CTR+, Evaluation Type: Evaluation A (Pre-1980)",active; positive
same,mutagenic call,"Species/Cell Type: Human diploid fibroblasts, Assay Type: Unscheduled DNA synthesis (UDS) in vitro, DNA effects, Assay Code: UDH+D, Dose Response: With dose response, Evaluation Type: Evaluation A (Pre-1980)",active; positive
same,mutagenic call,"Species/Cell Type: Human lymphocytes, Assay Type: Sister-chromatid exchange (SCE) in vitro, Assay Code: SCL+, Evaluation Type: Evaluation B (Post-1980)",active; positive
same,mutagenic call,"Species/Cell Type: Human, Assay Type: Sister-chromatid exchange (SCE) in vitro, Assay Code: SC1+, Evaluation Type: Evaluation A (Pre-1980)",active; positive
same,mutagenic call,"Species/Cell Type: Mouse (BALB/c-3T3) cells, Assay Type: Cell transformation, Assay Code: CTB+, Evaluation Type: Evaluation A (Pre-1980)",active; positive
same,mutagenic call,[1],active; positive
same,mutagenic call,[4],active; positive
same,mutagenic call,"Species/Cell Type: Neurospora crassa, Assay Type: Reverse gene mutation, Assay Code: NER+, Evaluation Type: Evaluation A (Pre-1980)",active; positive
same,call,"Species/Cell Type: Nonhuman, Assay Code: CCG+L, Evaluation Type: Evaluation A (Pre-1980)",active; positive
same,mutagenic call,"Species/Cell Type: Nonhuman, Assay Type: Sister-chromatid exchange (SCE) in vitro, Assay Code: SC2+D, Dose Response: With dose response, Evaluation Type: Evaluation A (Pre-1980)",active; positive
same,mutagenic call,"Species/Cell Type: Nonhuman, Assay Type: Sister-chromatid exchange (SCE) in vivo, Assay Code: SC3+, Evaluation Type: Evaluation B (Post-1980)",active; positive
same,mutagenic call,"Species/Cell Type: Nonhuman, Assay Type: Sister-chromatid exchange (SCE) in vivo, Assay Code: SC3T, Evaluation Type: Evaluation A (Pre-1980)",no conclusion
same,mutagenic call,"Species/Cell Type: Rat primary hepatocytes, Assay Type: Unscheduled DNA synthesis (UDS) in vitro, DNA effects, Assay Code: UDP+, Evaluation Type: Evaluation A (Pre-1980)",active; positive
same,mutagenic call,"Species/Cell Type: Saccharomyces cerevisiae, Assay Type: Mitotic recombination or gene conversion, Assay Code: YEC+, Evaluation Type: Evaluation A (Pre-1980)",active; positive
same,mutagenic call,"Species/Cell Type: Saccharomyces cerevisiae, Assay Type: Mitotic recombination or gene conversion, Assay Code: YEH+, Evaluation Type: Evaluation A (Pre-1980)",active; positive
same,mutagenic call,[2],active; positive
same,mutagenic call,[8],active; positive
same,mutagenic call,"Species/Cell Type: Syrian hamster embryo (SA7/SHE) cells, Assay Type: Cell transformation, viral enhanced, Assay Code: CT7+, Evaluation Type: Evaluation A (Pre-1980)",active; positive
same,mutagenic call,"Species/Cell Type: Syrian hamster embryo (SHE) cells, Assay Type: Cell transformation, clonal assay, Assay Code: CTC+D, Dose Response: With dose response, Evaluation Type: Evaluation A (Pre-1980)",active; positive
same,mutagenic call,"Species/Cell Type: Syrian hamster embryo (SHE) cells, Assay Type: Cell transformation, focus assay, Assay Code: CTF+, Evaluation Type: Evaluation A (Pre-1980)",active; positive
C=C1C(=O)OC2CC(C)C3CC(OCC)OC(OCC)C3(C)CC12 (stereo unspecified),mutagenic call,[2],active; positive
c1ccc2c(c1)-c1ccc3ccccc3c1C1OC21 (stereo unspecified),mutagenic call,"Species/Cell Type: Mouse prostate cells, Assay Type: Cell transformation, Assay Code: CTM-, Evaluation Type: Evaluation A (Pre-1980)",inactive; negative
same,mutagenic call,[2],active; positive
same,mutagenic call,[9],active; positive
O=C(O)c1ccccc1,mutagenic call,"Species/Cell Type: Escherichia coli WP2, Assay Type: Tryptophan reverse gene mutation, Assay Code: WP2-*, Activation: With metabolic activation, Evaluation Type: Evaluation A (Pre-1980)",inactive; negative
same,mutagenic call,"Species/Cell Type: Escherichia coli WP2 UVRA, Assay Type: Tryptophan reverse gene mutation, Assay Code: WPU-*, Activation: With metabolic activation, Evaluation Type: Evaluation A (Pre-1980)",inactive; negative
same,mutagenic call,"Species/Cell Type: Human, Assay Type: Sister-chromatid exchange (SCE) in vitro, Assay Code: SC1+, Evaluation Type: Evaluation B (Post-1980)",active; positive
same,mutagenic call,[7],inactive; negative
same,mutagenic call,"Species/Cell Type: Salmonella typhimurium (one or more of the five standard strains: TA98, TA100, TA1535, TA1537, and TA1538), Assay Type: Histidine reverse gene mutation, Ames assay, Assay Code: SAL-, Evaluation Type: Evaluation A (Pre-1980)",inactive; negative
C#CC(C)OC(=O)Nc1cccc(Cl)c1 (stereo unspecified) (tested in a mixture with another compound),mutagenic call,"Species/Cell Type: Saccharomyces cerevisiae, Assay Type: Mitotic recombination or gene conversion, Assay Code: YEC-, Evaluation Type: Evaluation A (Pre-1980)",inactive; negative
Cc1cc2c(c3ccc4ccccc4c13)C(=O)CC2,mutagenic call,[3],active; positive
O=NN1CCC(O)C1 (stereo unspecified),mutagenic call,[2],active; positive
CC[C@]1(O)CC[C@H]2[C@@H]3CCC4=CC(=O)CC[C@@H]4[C@H]3CC[C@@]21C,mutagenic call,"Species/Cell Type: Human, Sex: Male, Assay Type: Sperm morphology, Assay Code: SPH+, Evaluation Type: Evaluation A (Pre-1980)",active; positive
